What was measured:
[1] = tested on: diabetic patients hospitalized with acute MI; settings: IV insulin-glucose infusion then chronic insulin vs standard treatment; cited from earlier work
[2] = tested on: critical-care post-surgical patients; settings: intervention group: insulin infusion to blood glucose 80-110 mg/dL; cited from earlier work
[3] = Respective studies with other long-acting insulins; format: in vivo; settings: no data given
From the text: The results of the ORIGIN study were obtained with the long-lasting insulin glargine.

Row | Substance | reduction of all-cause mortality [1] | overall mortality at twelve-months follow-up [2] | results of respective studies compared with the ORIGIN results of insulin glargine [3]
1 | insulin: insulin infusion or chronic insulin treatment in cited DIGAMI and Belgian ICU studies | 28% | 8.0% | –
2 | insulin degludec | – | – | comparable results
3 | insulin detemir | – | – | comparable results
